Assay results taken from article PMC8729770, “In Vitro Evaluation of Antimicrobial Peptides from the Black Soldier Fly (Hermetia Illucens) against a Selection of Human Pathogens” (Microbiology Spectrum, 2022).
Like-named read-outs stand apart in the source and are kept apart here. Ends that are not written are not given here.

Columns and labels:
K. pneumoniae ATCC 13883 = conditions: ATCC 13883, 16 h
[1] = test system: M. tuberculosis ATCC 25177 (H37Ra); conditions: for IC50: read-out: IC50 M. tuberculosis ATCC 25177 (H37Ra), starting at 32 μM, 5×10^5 CFU/mL, 7 days, 37°C, resazurin; for MIC M. tuberculosis ATCC 25177 (H37Ra): visual
P. aeruginosa ATCC 9027 [2] = conditions: ATCC 9027, 16 h
[3] = test system: P. aeruginosa ATCC 15692 (PAO1); conditions: ATCC 15692, 16 h
E. coli ATCC 8739 [4] = conditions: ATCC 8739, 16 h
S. aureus ATCC 6538 = format: cell-based, Staphylococcus aureus; conditions: determined visually, 16 h
Method: (§1) To detect antimicrobial activity of the BSF AMPs, the peptide library underwent screening against a panel of microorganisms, consisting of S. aureus ATCC 6538, E. coli ATCC 8739, P. aeruginosa ATCC 9027, C. albicans B59630, and A. fumigatus B42928. Serial dilutions of the peptides were prepared from the DMSO stock solutions in sterile demineralized water in 96-well plates using an automated liquid-handling workstation (Beckman Coulter Biomek 3000) in end volumes of 10 μL. The final in-plate concentration of DMSO was <1%. Peptide concentrations ranged from 64 μM to 0.25 μM for the first evaluation, and from 32 μM to 0.016 μM for the independent repeat. As references, doxycycline (Sigma-Aldrich; S. aureus, E. coli, P. aeruginosa), flucytosine (Sigma-Aldrich; C. albicans), and econazole (Sigma-Aldrich; A. fumigatus) were used. Suspensions of a starting inoculum of 5 × 10^3 CFU/mL (E. coli, S. aureus, C. albicans, A. fumigatus) and 5 × 10^4 CFU/mL (P. aeruginosa) were prepared in MHB (bacterial species) or RPMI medium (fungal species) and 190 μL was added to the 96-well plates. Plates were incubated for 16 h (E. coli, S. aureus, P. aeruginosa), 24 h (C. albicans), or 48 h (A. fumigatus) at 37°C. After incubation, read-out of the antimicrobial activity was performed using a resazurin assay. Then, 20 μL of a 0.01% (wt/vol) resazurin (Sigma-Aldrich) solution was added to each well and plates were incubated for 15 min (S. aureus), 30 min (E. coli), 45 min (P. aeruginosa), 4 h (C. albicans), or 17 h (A. fumigatus) to allow resazurin reduction to take place. Fluorescence was read using a microplate reader (Telix) at λexcitation = 550 nm and λemission = 590. […] MIC values were determined visually. Medium in the wells with no visual growth was plated on MHA to detect the MBC, defined as ≥3 log reduction compared with the growth control.

[5] = test system: preformed P. aeruginosa ATCC 15442 biofilm; assay: Biofilm eradication (postexposure); format: cell-based, Pseudomonas aeruginosa; conditions: 128-0.5 μM, 16 h; resazurin
Method: After 16 h of incubation at 37°C and shaking at 110 rpm (New Brunswick Innova 4300), a resazurin assay was used as described by Gilbert-Girard et al. to determine the viability of the bacterial cells in the biofilm ([79]). After incubation, the growth medium was removed from the well plates and the bacterial biofilms were washed once with PBS to remove remaining planktonic cells. […] The fluorescence of the wells was measured at λexcitation = 550 nm and λemission = 590 using a microplate reader (Promega). Afterwards, a crystal violet staining was applied to determine the biomass of the biofilms ([79]). The resazurin solution was removed from the well plates and 200 μL of 100% ethanol (VWR Chemicals) was added to fix the biofilms. After 15 min of incubation, the ethanol was discarded from the wells and the plates were left to air dry for 30 min. […] The staining solution was removed after 5 min and the biofilms were washed with PBS. After air-drying for 10 min, the crystal violet stain was solubilized in 200 μL of 100% ethanol. […] The experiment was carried out three times. Polymyxin B sulfate (Sigma-Aldrich) was included as a reference. […] The next day, bacterial viability and biomass were determined with a resazurin assay and crystal violet assay as described earlier. […]

P. aeruginosa ATCC 9027 [6] = assay: Outer membrane permeabilization with N-phenyl-naphthylamine; format: cell-based, Pseudomonas aeruginosa; conditions: compared with 16 μM polymyxin B
Method: N-phenyl-naphthylamine (NPN; Tokyo chemical industry [TCI]) was used to study the permeabilization of the OM as described by […] et al. ([81]). Briefly, P. aeruginosa ATCC 9027 was grown until the mid-log phase in MHB. Afterwards, the cells were centrifuged (3,000 × g, 15 min) and resuspended in 5 mM HEPES buffer (pH 7.4) to an OD600 of 0.5. […] Fluorescence was measured every 5 min during 1 h using a microplate reader (Promega) with λexcitation = 350 nm and λemission = 420. Data were normalized based on the fluorescent signal in the presence of 50 μL HEPES buffer, 50 μL NPN, and 100 μL bacteria. Experiments were carried out in triplicate.

P. aeruginosa ATCC 9027 [7] = format: cell-based, Pseudomonas aeruginosa; conditions: for MBC P. aeruginosa ATCC 9027: plated on MHA, ≥3 log reduction vs growth control
Method: as §1

E. coli ATCC 8739 [8] = format: cell-based, Escherichia coli; conditions: for MBC E. coli ATCC 8739: plated on MHA, ≥3 log reduction vs growth control
Outline: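 Peptides were serially diluted (64–0.25 μM, repeat 32–0.016 μM) against 5 × 10^3 CFU/mL inocula in MHB (bacteria) or RPMI (fungi) at 37°C for 16 h (bacteria), 24 h (C. albicans) or 48 h (A. fumigatus). MIC was read visually with resazurin readout; MBC was defined as ≥3 log reduction on MHA.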

P. aeruginosa ATCC 15442 = conditions: ATCC 15442, 16 h

Substance: RWYKKIFKPVEKAVQRVRDGTLQALGVAQQAANVYATAQGAQQQRHA-NH2 [Hill-Cec10]
- MIC K. pneumoniae (K. pneumoniae ATCC 13883): 0.5 to 1 µM
- IC50 ([1]; repeat 1): > 32 µM
- IC50 ([1]; repeat 2): > 32 µM
- MIC M. tuberculosis ATCC 25177 (H37Ra) ([1]; repeat 1): >32 µM
- MIC M. tuberculosis ATCC 25177 (H37Ra) ([1]; repeat 2): >32 µM
- IC50 (P. aeruginosa ATCC 9027 [2]): 0.75 µM
- MBC P. aeruginosa ATCC 15692 (PAO1) [3]: 16 µM
- MIC E. coli ATCC 8739 (E. coli ATCC 8739 [4]): 1 µM
- MIC S. aureus ATCC 6538 (S. aureus ATCC 6538; repeat 1, 64-0.25 μM): > 64.00 µM
- MIC S. aureus ATCC 6538 (S. aureus ATCC 6538; repeat 2, 32-0.016 μM): > 32.00 µM
- effect on viability of preformed biofilm compared with the untreated control [5]: No significant effect
- maximum NPN uptake (P. aeruginosa ATCC 9027 [6]; at 32 μM): 75%
- concentration to achieve at least 50% NPN uptake (P. aeruginosa ATCC 9027 [6]): 4 µM
- MBC P. aeruginosa ATCC 9027 (P. aeruginosa ATCC 9027 [7]; repeat 1): 16.00 µM
- MIC P. aeruginosa ATCC 9027 (P. aeruginosa ATCC 9027 [7]; repeat 2, 32-0.016 μM, determined visually, 16 h): 2.00 µM
- MBC P. aeruginosa ATCC 9027 (P. aeruginosa ATCC 9027 [7]; repeat 2): 2.00 µM
- MIC E. coli ATCC 8739 (E. coli ATCC 8739 [8]; ATCC 8739, 16 h): 0.50 µM
- MIC E. coli ATCC 8739 (E. coli ATCC 8739 [8]; repeat 1, 64-0.25 μM, determined visually, 16 h): 0.25 µM
- MBC E. coli ATCC 8739 (E. coli ATCC 8739 [8]; repeat 1): 0.25 µM
- MBC E. coli ATCC 8739 (E. coli ATCC 8739 [8]; repeat 2): 32.00 µM
- MIC P. aeruginosa ATCC 15442 (P. aeruginosa ATCC 15442): 4 µM
